The text below walks through data of patent US11345711B2, “8,9-dihydroimidazo[1,2-a]pyrimido[5,4-e]pyrimidin-5(6H)-ones” (IMPACT THERAPEUTICS (SHANGHAI), INC, priority 2016, dated 2022).

Like-named read-outs stand apart in the source and are kept apart here.

Assay [1] has as its system NCI-H1299 cells. Nature of the assay: MTT based cell viability assay on NCI-H1299 cells. The conditions noted are these: Homo sapiens, read-out: IC50, growth inhibition of NCI-H1299 cells. Put shortly: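 NCI-H1299 cells (1000/well, settled overnight) were exposed for 3 d at 37 °C, 5% CO2, to an eight-point series of 10 μM to 0.01 μM plus DMSO blank, as prepared in DMSO (final DMSO 1‰). MTT (0.5 mg/mL, 4 h) was read at 552/630/690 nm. IC50 came from sigmoidal dose-response fits of survival.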

The target of assay [2] is Wee1 (h) (Homo sapiens, UniProt P30291). Put plainly: Wee1 kinase (h) detection method, [γ-33P]-ATP filter assay. It is filed as biochemical.
Assay [3] has as its system LoVo cells. Put plainly: MTT based cell viability assay on LoVo cells. The conditions noted are these: Homo sapiens, LoVo, 72 h, 3 d, read-out: IC50, growth inhibition of LoVo cells. In outline:
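Inhibition of LoVo proliferation was derived as IC50 from a sigmoidal dose-response fit of cell survival. Readout was MTT (0.5 mg/mL, 4 h) with absorbance at 552/630/690 nm, after 3-day treatment at 37 °C. Eight-point series from 10 μM to 0.01 μM, DMSO control, 1% DMSO final.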

Sequence of Wee1 (h) (P30291 whole entry): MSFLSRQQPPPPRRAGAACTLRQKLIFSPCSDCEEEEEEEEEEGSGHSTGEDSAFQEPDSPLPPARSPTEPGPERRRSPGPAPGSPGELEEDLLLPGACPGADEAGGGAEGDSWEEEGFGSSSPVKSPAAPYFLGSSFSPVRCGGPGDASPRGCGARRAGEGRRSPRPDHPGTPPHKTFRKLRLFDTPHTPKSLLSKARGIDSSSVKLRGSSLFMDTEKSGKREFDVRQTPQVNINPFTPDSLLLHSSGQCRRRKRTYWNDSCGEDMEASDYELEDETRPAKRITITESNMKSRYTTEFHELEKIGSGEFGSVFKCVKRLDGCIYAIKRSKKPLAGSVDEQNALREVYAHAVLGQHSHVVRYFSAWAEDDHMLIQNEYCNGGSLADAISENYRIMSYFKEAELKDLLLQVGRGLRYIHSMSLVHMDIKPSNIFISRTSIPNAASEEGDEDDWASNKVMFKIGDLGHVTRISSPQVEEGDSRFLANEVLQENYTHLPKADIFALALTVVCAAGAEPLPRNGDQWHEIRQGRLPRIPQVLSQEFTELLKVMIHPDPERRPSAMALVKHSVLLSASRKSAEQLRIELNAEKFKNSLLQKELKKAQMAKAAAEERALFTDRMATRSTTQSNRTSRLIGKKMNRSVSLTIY

As to `CN1CCC(Oc2ccc(Nc3ncc4c(n3)N3CCN=C3N(c3c(F)cccc3Cl)C4=O)cc2)CC1` [Example 107, 6-(2-Chloro-6-fluorophenyl)-2-((4-((1-methylpiperidin-4-yl)oxy)phenyl)amino)-8,9-dihydroimidazo[1,2-a]pyrimido[5,4-e]pyrimidin-5(6H)-one], the results for the IC50 in assay [1] (NCI-H1299 cells) and in assay [3] were 794 nM and 360 nM, respectively. Moreover, the “Inh. (%) of Wee1 kinase enzyme activity” value in assay [2] (C 1 μm compound) was found to be 95%.

In the case of `CN(C)CCNc1ccc(Nc2ncc3c(n2)N2CCN=C2N(c2c(F)cccc2Cl)C3=O)cc1` [Example 108, 6-(2-Chloro-6-fluorophenyl)-2-((4-((2-(dimethylamino)ethyl)amino)phenyl)amino)-8,9-dihydroimidazo[1,2-a]pyrimido[5,4-e]pyrimidin-5(6H)-one], the IC50 was 899 nM in assay [1] (NCI-H1299, NCI-H1299 cells) and 1500 nM in assay [3]. The “Inh. (%) of Wee1 kinase enzyme activity” value in assay [2] (C 1 μm compound) turned out to be 96%.

With `CN(C)CCN(C)c1ccc(Nc2ncc3c(n2)N2CCN=C2N(c2c(F)cccc2Cl)C3=O)cc1` [Example 109, 6-(2-Chloro-6-fluorophenyl)-2-((4-((2-(dimethylamino)ethyl)(methyl)amino)phenyl)amino)-8,9-dihydroimidazo[1,2-a]pyrimido[5,4-e]pyrimidin-5(6H)-one], the IC50 in assay [1] (NCI-H1299 cells) amounted to 884 nM; in assay [3], 1150 nM. Moreover, the “Inh. (%) of Wee1 kinase enzyme activity” value in assay [2] (C 1 μm compound) is recorded as 96%.

As to `CN(C)CCCNc1ccc(Nc2ncc3c(n2)N2CCN=C2N(c2c(F)cccc2Cl)C3=O)cc1` [Example 110, 6-(2-Chloro-6-fluorophenyl)-2-((4-((3-(dimethylamino)propyl)amino)phenyl)amino)-8,9-dihydroimidazo[1,2-a]pyrimido[5,4-e]pyrimidin-5(6H)-one], the IC50 in assay [1] (NCI-H1299 cells) is 599 nM; in assay [3] it was 472 nM. Besides, the “Inh. (%) of Wee1 kinase enzyme activity” value in assay [2] (C 1 μm compound) is 96%.

Consider `CN(C)CCCN(C)c1ccc(Nc2ncc3c(n2)N2CCN=C2N(c2c(F)cccc2Cl)C3=O)cc1` [Example 111, 6-(2-Chloro-6-fluorophenyl)-2-((4-((3-(dimethylamino)propyl)(methyl)amino)phenyl)amino)-8,9-dihydroimidazo[1,2-a]pyrimido[5,4-e]pyrimidin-5(6H)-one], for which the IC50 in assay [1] (NCI-H1299 cells) is 913 nM; in assay [3] it was 835 nM. Moreover, the “Inh. (%) of Wee1 kinase enzyme activity” value in assay [2] (C 1 μm compound) is reported as 96%.

On to `CN1CCC(Nc2ccc(Nc3ncc4c(n3)N3CCN=C3N(c3c(F)cccc3Cl)C4=O)cc2)CC1` [Example 112, 6-(2-Chloro-6-fluorophenyl)-2-((4-((1-methylpiperidin-4-yl)amino)phenyl)amino)-8,9-dihydroimidazo[1,2-a]pyrimido[5,4-e]pyrimidin-5(6H)-one], for which the IC50 in assay [1] (NCI-H1299, NCI-H1299 cells) worked out at 481 nM; in assay [3], 393 nM. Moreover, the “Inh. (%) of Wee1 kinase enzyme activity” value in assay [2] (C 1 μm compound) is given as 97%.

`CN1CCC(N(C)c2ccc(Nc3ncc4c(n3)N3CCN=C3N(c3c(F)cccc3Cl)C4=O)cc2)CC1` [Example 113, 6-(2-Chloro-6-fluorophenyl)-2-((4-(methyl(1-methylpiperidin-4-yl)amino)phenyl)amino)-8,9-dihydroimidazo[1,2-a]pyrimido[5,4-e]pyrimidin-5(6H)-one]: the 50% inhibitory concentration (IC50) in assay [1] (NCI-H1299, NCI-H1299 cells) is 672 nM; in assay [3], 483 nM. In addition, in assay [2] (C 1 μm compound), the “Inh. (%) of Wee1 kinase enzyme activity” value came out at 96%.

With `CN1CCC(c2ccc(Nc3ncc4c(n3)N3CCN=C3N(c3c(F)cccc3Cl)C4=O)cc2)CC1` [Example 114, 6-(2-Chloro-6-fluorophenyl)-2-((4-(1-methylpiperidin-4-yl)phenyl)amino)-8,9-dihydroimidazo[1,2-a]pyrimido[5,4-e]pyrimidin-5(6H)-one], the IC50 in assay [1] (NCI-H1299, NCI-H1299 cells) was 233 nM; in assay [3], 105 nM. Moreover, the “Inh. (%) of Wee1 kinase enzyme activity” value in assay [2] (C 1 μm compound) was determined as 98%.

As to `CN(C)C1CCN(c2ccc(Nc3ncc4c(n3)N3CCN=C3N(c3c(F)cccc3Cl)C4=O)cc2)CC1` [Example 115, 6-(2-Chloro-6-fluorophenyl)-2-((4-(4-(dimethylamino)piperidin-1-yl)phenyl)amino)-8,9-dihydroimidazo[1,2-a]pyrimido[5,4-e]pyrimidin-5(6H)-one], the IC50 in assay [1] (NCI-H1299, NCI-H1299 cells) worked out at 381 nM; in assay [3] it was 265 nM. The “Inh. (%) of Wee1 kinase enzyme activity” value in assay [2] (C 0.01 μm compound) came out at 34%; in assay [2] (C 0.1 μm compound) it was 81%; in assay [2] (C 1 μm compound), 96%.

In the case of `CN(C)C1CCN(c2ccc(Nc3ncc4c(n3)N3CCN=C3N(c3c(F)cccc3Cl)C4=O)cc2F)CC1` [Example 116, 6-(2-Chloro-6-fluorophenyl)-2-((4-(4-(dimethylamino)piperidin-1-yl)-3-fluorophenyl)amino)-8,9-dihydroimidazo[1,2-a]pyrimido[5,4-e]pyrimidin-5(6H)-one], the IC50 worked out at 265 nM in assay [1] (NCI-H1299, NCI-H1299 cells) and 123 nM in assay [3]. The figures for the “Inh. (%) of Wee1 kinase enzyme activity” value in assay [2] (C 0.01 μm compound), in assay [2] (C 0.1 μm compound) and in assay [2] (C 1 μm compound) were 19%, 77% and 98%, respectively.

With `CN(C)C1CCN(c2ccc(Nc3ncc4c(n3)N3CCN=C3N(c3c(F)cccc3Cl)C4=O)cc2Cl)CC1` [Example 117, 6-(2-Chloro-6-fluorophenyl)-2-((3-chloro-4-(4-(dimethylamino)piperidin-1-yl)phenyl)amino)-8,9-dihydroimidazo[1,2-a]pyrimido[5,4-e]pyrimidin-5(6H)-one], the IC50 was found to be 103 nM in assay [1] (NCI-H1299, NCI-H1299 cells) and 66.2 nM in assay [3]. Moreover, the “Inh. (%) of Wee1 kinase enzyme activity” value in assay [2] (C 0.01 μm compound) is given as 22%; in assay [2] (C 0.1 μm compound), 84%; in assay [2] (C 1 μm compound), 98%.

Consider `CN(C)C1CCN(c2ccc(Nc3ncc4c(n3)N3CCN=C3N(c3c(F)cccc3Cl)C4=O)cc2Br)CC1` [Example 118, 6-(2-Chloro-6-fluorophenyl)-2-((3-bromo-4-(4-(dimethylamino)piperidin-1-yl)phenyl)amino)-8,9-dihydroimidazo[1,2-a]pyrimido[5,4-e]pyrimidin-5(6H)-one], for which the IC50 was 96.4 nM in assay [1] (NCI-H1299, NCI-H1299 cells) and 81.1 nM in assay [3]. For the same compound, the “Inh. (%) of Wee1 kinase enzyme activity” value in assay [2] (C 0.01 μm compound) is reported as 25%; in assay [2] (C 0.1 μm compound) it was 82%; in assay [2] (C 1 μm compound) it was 96%.

Consider `Cc1cc(Nc2ncc3c(n2)N2CCN=C2N(c2c(F)cccc2Cl)C3=O)ccc1N1CCC(N(C)C)CC1` [Example 119, 6-(2-Chloro-6-fluorophenyl)-2-((4-(4-(dimethylamino)piperidin-1-yl)-3-methylphenyl)amino)-8,9-dihydroimidazo[1,2-a]pyrimido[5,4-e]pyrimidin-5(6H)-one], for which the half-inhibitory concentration (IC50) in assay [1] (NCI-H1299, NCI-H1299 cells) came out at 92.3 nM; in assay [3], 54.3 nM. Also, the entries for the “Inh. (%) of Wee1 kinase enzyme activity” value in assay [2] (C 0.01 μm compound), in assay [2] (C 0.1 μm compound) and in assay [2] (C 1 μm compound) were 24%, 86% and 99%, respectively.

Consider `Cc1cc(Nc2ncc3c(n2)N2CCN=C2N(c2c(F)cccc2Cl)C3=O)cc(F)c1N1CCC(N(C)C)CC1` [Example 120, 6-(2-Chloro-6-fluorophenyl)-2-((3-fluoro-5-methyl-4-(4-(dimethylamino)piperidin-1-yl)phenyl)amino)-8,9-dihydroimidazo[1,2-a]pyrimido[5,4-e]pyrimidin-5(6H)-one], for which the IC50 in assay [1] (NCI-H1299, NCI-H1299 cells) came to 59.3 nM; in assay [3], 35.9 nM. Moreover, the entries for the “Inh. (%) of Wee1 kinase enzyme activity” value in assay [2] (C 0.01 μm compound), in assay [2] (C 0.1 μm compound) and in assay [2] (C 1 μm compound) were 16%, 80% and 98%, respectively.

On to `CN1CCN(c2cnc(Nc3ncc4c(n3)N3CCN=C3N(c3c(F)cccc3Cl)C4=O)cn2)CC1` [Example 121, 6-(2-Chloro-6-fluorophenyl)-2-((5-(4-methylpiperazin-1-yl)pyrazin-2-yl)amino)-8,9-dihydroimidazo[1,2-a]pyrimido[5,4-e]pyrimidin-5(6H)-one], for which the figures for the IC50 in assay [1] (NCI-H1299 cells) and in assay [3] were more than 10000 nM and more than 100000 nM, respectively. Also, the “Inh. (%) of Wee1 kinase enzyme activity” value in assay [2] (C 1 μm compound) is listed as 15%.

On to `CN1CCN(c2c(Cl)cc(Nc3ncc4c(n3)N3CCN=C3N(c3c(F)cccc3Cl)C4=O)cc2Cl)CC1` [Example 122, 6-(2-Chloro-6-fluorophenyl)-2-((3,5-dichloro-4-(4-methylpiperazin-1-yl)phenyl)amino)-8,9-dihydroimidazo[1,2-a]pyrimido[5,4-e]pyrimidin-5(6H)-one], for which the IC50 in assay [1] (NCI-H1299, NCI-H1299 cells) was 334 nM; in assay [3], 51.8 nM. Besides, the “Inh. (%) of Wee1 kinase enzyme activity” value is recorded as 20% in assay [2] (C 0.01 μm compound), 58% in assay [2] (C 0.1 μm compound) and 91% in assay [2] (C 1 μm compound).

Take `Cc1cc(Nc2ncc3c(n2)N2CCN=C2N(c2c(F)cccc2Cl)C3=O)cc(F)c1N1CCN(C)CC1` [Example 123, 6-(2-Chloro-6-fluorophenyl)-2-((3-fluoro-5-methyl-4-(4-methylpiperazin-1-yl)phenyl)amino)-8,9-dihydroimidazo[1,2-a]pyrimido[5,4-e]pyrimidin-5(6H)-one]: the IC50 was found to be 218 nM in assay [1] (NCI-H1299, NCI-H1299 cells) and 39.1 nM in assay [3]. In addition, the “Inh. (%) of Wee1 kinase enzyme activity” value was found to be 43% in assay [2] (C 0.01 μm compound), 87% in assay [2] (C 0.1 μm compound) and 97% in assay [2] (C 1 μm compound).

Regarding `COc1cc(Nc2ncc3c(n2)N2CCN=C2N(c2c(F)cccc2Cl)C3=O)cc(F)c1N1CCN(C)CC1` [Example 124, 6-(2-Chloro-6-fluorophenyl)-2-((3-fluoro-5-methoxy-4-(4-methylpiperazin-1-yl)phenyl)amino)-8,9-dihydroimidazo[1,2-a]pyrimido[5,4-e]pyrimidin-5(6H)-one], the IC50 in assay [1] (NCI-H1299, NCI-H1299 cells) came out at 138 nM; in assay [3], 49.7 nM. Also, the “Inh. (%) of Wee1 kinase enzyme activity” value was found to be 18% in assay [2] (C 0.01 μm compound), 62% in assay [2] (C 0.1 μm compound) and 92% in assay [2] (C 1 μm compound).

As usually defined, the IC50 is the concentration that gives 50% inhibition.
